Data on 15 compounds can be found in patent US20260193219A1, “TRIAZINE DERIVATIVES FOR TREATING DISEASES RELATING TO NEUROTROPHINS” (AlzeCure Pharma AB, priority 2020, published 2026).

Molecules are shown by their SMILES.

Series [1] is described as follows: Human liver microsomal stability. It counts as in vitro ADME. Conditions: human liver microsomes 0.5 mg/mL, 3 μM compound, NADPH, 37° C. As for the experimental part:
A 10 mM stock solution (in DMSO) was prepared for each compound. From the intermediate stock solution of 2 mM, a working solution of 0.5 mM was prepared by diluting the compound in Acetonitrile:water (50:50). The compound (1.8 μL of working solution) was spiked in 0.1 M potassium phosphate buffer (260.7 μL), pH 7.4 at a concentration of 3 μM (0.1% DMSO). Following this, human liver microsomes (pooled, Invitrogen, #HMMCPL) (7.5 μL; final protein conc. 0.5 mg/mL) were added. The aforementioned sample was incubated at 37° C. for 5 min. Subsequently, 30 μL of 10 mM NADPH prepared in 0.1 M potassium phosphate buffer was added (as a co-factor) to initiate the reaction. The samples were then incubated at 37° C. for 0, 20, 40, 60 and 120 min.
At each time point (0, 20, 40, 60 and 120 min), 40 μL of the samples were withdrawn and reactions were stopped using 360 μL chilled acetonitrile or methanol containing suitable internal standard (Carbamazepine). The samples were centrifuged and the supernatants was analyzed in duplicate by LC-MS/MS. The percent compound remaining at each time point was calculated with respect to that of the 0 min sample. Control samples were run without NADPH for initial and final time point and blank samples was prepared using DMSO (without the test compound).
For comparison, the experiment was also performed with known Trk receptor signalling modulator 1-methyl-3-[3-methyl-4-(4-trifluoromethanesulfonylphenoxy)phenyl]-1,3,5-triazinane-2,4,6-trione) (ponazuril). Ponazuril is metabolized very slowly in vivo and this prolonged exposure creates an increased risk of side effects if the compound is administered systemically. This causes significant challenges to the development of the compound as a systemic drug.
A general note: Microsomes from liver hold many membrane-bound enzymes, among them those of drug oxidation.

The target in a further series is T1, TrkA (Homo sapiens, UniProt P04629).
T1 construct: expressed in transfected cells; host or cells: U2OS
Kind of series: In vitro Trk receptor modulation assay (Enzyme Fragment Complementation), U2OS cells over-expressing TrkA. It is filed as cell-based. The settings on record: compound pre-mixed with ligand (NGF), final 10 ng/mL, 3 hours, modulator mode. The text has this: (§1) A high throughput cell-based screen was used to identify positive modulators of TrkA and TrkB. The screen involves the use of cell-based assay overexpressing TrkA, or TrkB. The purpose of the assay is to identify compounds that modulate neurotrophin signalling (Forsell et al 2012). The assay can be used in inhibitor mode using a high concentration of ligand, in modulator mode using an intermediate concentration and in agonist mode using a low concentration of ligand.
(§2) The assay uses Enzyme Fragment Complementation (EFC) technique, which is a proximity-based assay. Briefly, cells used in this assay over-express two fusion proteins, i.e. the receptor, which can be one of TrkA or TrkB fused to a small peptide of beta-galactosidase and an adaptor protein, i.e. SHC1 (or any other Trk-adaptor protein) fused to the major part of beta-galactosidase. […] The proximity between the small activating peptide on the receptor and the major part of beta-galactosidase on the adaptor protein leads to an active beta-galactosidase enzyme. The activation of the receptor is quantified by measuring the amount of active beta-galactosidase by its conversion of a non-luminescent substrate into a luminescent product.
(§3) U2OS-cells, over-expressing TrkA or TrkB, were plated in 96- or 384-well plates and incubated overnight. On the following day, test compound was pre-mixed with ligand (NGF) and the ligand-compound mixture is then added to the cells to yield a final ligand concentration of 10 ng/mL. After 3 hours of incubation at room temperature, the incubation is stopped by the addition of a beta-galactosidase substrate mixture containing detergents. The substrate mixture is incubated for 60 minutes at ambient temperature. The luminescence is thereafter read by the use of a plate reader.

Another series concerns the target T2, TrkB (Homo sapiens, UniProt Q16620).
T2 construct: expressed in transfected cells; host or cells: U2OS
The experiment in a line: In vitro Trk receptor modulation assay (Enzyme Fragment Complementation), U2OS cells over-expressing TrkB. It is filed as cell-based. The settings on record: compound pre-mixed with ligand (NGF), final 10 ng/mL, 3 hours, modulator mode.
Description: as §1, §2, §3

The subject of the next series is C57/Bl6 mice. Kind of series: Passive avoidance task in scopolamine-treated mice. It is filed as in vivo. Conditions: mice treated with scopolamine 0.3 mg/kg s.c.; compound single s.c. administration 60 min prior to training, different doses. The method, then: The passive avoidance (PA) is an aversive learning task based on classical (Pavlovian) fear conditioning that allows for analysis of both facilitation and impairment of memory function by adjusting the unconditioned stimulus, i.e. the electrical foot shock. Commonly a cognitive-impairing agent is administered to the animals to mimic the neurochemical disturbances present in various cognitive disorders e.g. cholinergic (scopolamine) and glutamatergic (MK-801) deficits.
Prior to testing, the animals are brought to the experimental room where they were allowed to habituate for 60 min. The test is conducted using a modified shuttle box with two communicating compartments of equal size with a small sliding door built into the separating wall and a stainless-steel bar floor. One of the compartments is not illuminated and thus black whereas the other compartment (the light one) is illuminated by an electric bulb, installed on the top of a plexiglass cover. The PA training is conducted in a single session. […] Latency to cross over into the dark compartment (training latency) is recorded. […] The latency to cross over into the dark compartment with all four feet is measured (retention latency) as well as time in bright compartment and a number of other relevant parameters (e.g. number of visits in the dark compartment). […]

T1 sequence (P04629 33-796): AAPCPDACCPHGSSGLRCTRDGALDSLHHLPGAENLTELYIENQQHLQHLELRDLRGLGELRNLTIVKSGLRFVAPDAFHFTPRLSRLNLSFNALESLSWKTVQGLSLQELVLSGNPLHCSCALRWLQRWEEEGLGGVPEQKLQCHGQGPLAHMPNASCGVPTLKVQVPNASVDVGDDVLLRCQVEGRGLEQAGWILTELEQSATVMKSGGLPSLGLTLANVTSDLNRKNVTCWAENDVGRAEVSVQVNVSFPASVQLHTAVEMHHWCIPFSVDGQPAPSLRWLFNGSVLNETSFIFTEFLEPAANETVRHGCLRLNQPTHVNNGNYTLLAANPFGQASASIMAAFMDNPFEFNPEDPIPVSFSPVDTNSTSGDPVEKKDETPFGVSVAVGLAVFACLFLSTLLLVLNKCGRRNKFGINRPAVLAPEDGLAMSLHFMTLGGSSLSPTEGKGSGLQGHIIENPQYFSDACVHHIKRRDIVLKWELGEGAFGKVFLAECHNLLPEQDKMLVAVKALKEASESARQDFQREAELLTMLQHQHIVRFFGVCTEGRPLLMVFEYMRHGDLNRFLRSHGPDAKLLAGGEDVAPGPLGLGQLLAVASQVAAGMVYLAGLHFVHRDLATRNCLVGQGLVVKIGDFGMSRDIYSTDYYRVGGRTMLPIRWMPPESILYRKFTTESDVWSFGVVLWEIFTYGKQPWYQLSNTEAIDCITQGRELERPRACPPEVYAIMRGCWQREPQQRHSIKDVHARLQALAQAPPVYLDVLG
T2 sequence (Q16620 32-822): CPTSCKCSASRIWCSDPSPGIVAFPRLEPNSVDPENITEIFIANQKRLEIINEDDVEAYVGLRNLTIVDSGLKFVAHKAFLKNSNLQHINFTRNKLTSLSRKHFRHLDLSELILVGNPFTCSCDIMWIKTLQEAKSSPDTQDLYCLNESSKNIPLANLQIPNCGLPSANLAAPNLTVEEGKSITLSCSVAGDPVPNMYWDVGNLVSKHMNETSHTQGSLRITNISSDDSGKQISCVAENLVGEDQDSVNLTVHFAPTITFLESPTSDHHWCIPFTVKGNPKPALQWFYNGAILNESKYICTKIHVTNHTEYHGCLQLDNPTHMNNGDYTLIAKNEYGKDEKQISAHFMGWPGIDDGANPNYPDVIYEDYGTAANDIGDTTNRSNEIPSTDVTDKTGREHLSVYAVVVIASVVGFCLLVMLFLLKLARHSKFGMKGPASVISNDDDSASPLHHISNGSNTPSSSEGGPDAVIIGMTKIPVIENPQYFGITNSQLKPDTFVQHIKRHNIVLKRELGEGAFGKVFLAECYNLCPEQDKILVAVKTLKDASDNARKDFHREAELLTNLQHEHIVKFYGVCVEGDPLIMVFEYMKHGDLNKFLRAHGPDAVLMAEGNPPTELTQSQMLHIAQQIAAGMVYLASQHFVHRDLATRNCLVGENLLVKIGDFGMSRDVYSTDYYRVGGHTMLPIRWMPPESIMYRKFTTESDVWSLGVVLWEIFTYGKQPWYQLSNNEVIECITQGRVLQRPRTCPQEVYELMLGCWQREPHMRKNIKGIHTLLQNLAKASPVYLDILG

As a reminder, the EC50 is the concentration at which the effect is half-maximal. On to `COCc1cccc(-n2c(=O)[nH]c(=O)n(-c3ccc(Oc4ccccc4)c(C)c3)c2=O)c1` [Example 2, 1-[3-(methoxymethyl)phenyl]-3-(3-methyl-4-phenoxyphenyl)-1,3,5-triazinane-2,4,6-trione], for which, in series [1], the “% of parent compound metabolized after 120 min” value (from here on “% of parent compound metabolized”) came to 13.3%. The EC50 worked out at 430 nM on TrkA and 260 nM on TrkB.
`COCc1cc(-n2c(=O)[nH]c(=O)n(-c3cccc(C)c3)c2=O)ccc1Oc1ccccc1` [Example 3, 1-[3-(methoxymethyl)-4-phenoxyphenyl]-3-(3-methylphenyl)-1,3,5-triazinane-2,4,6-trione]: the “% of parent compound metabolized” value in series [1] is 82.0%. The EC50 was determined as 330 nM at TrkA and 310 nM at TrkB. Also, the “cognitive function, retention latency within the bright area (passive avoidance)” value in the series with C57/Bl6 mice was “improves cognitive function”.
As to `Cc1cc2cccc(-n3c(=O)[nH]c(=O)n(-c4ccc(Oc5ccccc5)c(C)c4)c3=O)c2o1` [Example 4, 1-(2-methyl-1-benzofuran-7-yl)-3-(3-methyl-4-phenoxyphenyl)-1,3,5-triazinane-2,4,6-trione], the “% of parent compound metabolized” value in series [1] is on record as 37.7%. Further, the EC50 amounted to 300 nM at TrkA and 270 nM at TrkB.
The corresponding values for `Cc1cccc(-n2c(=O)[nH]c(=O)n(-c3ccc(Oc4ccccc4)c(CN4CCNC4=O)c3)c2=O)c1` [Example 5, 1-(3-methylphenyl)-3-{3-[(2-oxoimidazolidin-1-yl)methyl]-4-phenoxyphenyl}-1,3,5-triazinane-2,4,6-trione] are 15.4%, 300 nM and 120 nM.
In the case of `CCc1cc(-n2c(=O)[nH]c(=O)n(-c3ccccc3)c2=O)ccc1Oc1ccccc1` [Example 6, 1-(3-ethyl-4-phenoxyphenyl)-3-phenyl-1,3,5-triazinane-2,4,6-trione], the figures for the EC50 on TrkA and at TrkB were 210 nM and 220 nM, respectively.
As for `CCc1cc(-n2c(=O)[nH]c(=O)n(-c3cccc(C)c3)c2=O)ccc1Oc1ccccc1` [Example 7, 1-(3-ethyl-4-phenoxyphenyl)-3-(3-methylphenyl)-1,3,5-triazinane-2,4,6-trione], the “% of parent compound metabolized” value in series [1] turned out to be 48.8%. Besides, the results for the EC50 at TrkA and on TrkB were 130 nM and 90 nM, respectively.
`COc1ccc(-n2c(=O)[nH]c(=O)n(-c3ccc(Oc4ccccc4)c(C)c3)c2=O)cc1` [Example 8, 1-(4-methoxyphenyl)-3-(3-methyl-4-phenoxyphenyl)-1,3,5-triazinane-2,4,6-trione]: the EC50 on TrkA is 350 nM; on TrkB, 230 nM.
As to `Cc1cccc(-n2c(=O)[nH]c(=O)n(-c3ccc(Oc4ccccc4)c(OCC(=O)N4CCCC4)c3)c2=O)c1` [Example 9, 1-(3-methylphenyl)-3-{3-[2-oxo-2-(pyrrolidin-1-yl)ethoxy]-4-phenoxyphenyl}-1,3,5-triazinane-2,4,6-trione], the “% of parent compound metabolized” value in series [1] turned out to be 82.8%. In addition, the EC50 on TrkA stood at 210 nM; on TrkB, 150 nM.
As for `Cc1cccc(-n2c(=O)[nH]c(=O)n(-c3ccc(Oc4ccccc4)c(OCC(=O)N4CCCCC4)c3)c2=O)c1` [Example 10, 1-(3-methylphenyl)-3-{3-[2-oxo-2-(piperidin-1-yl)ethoxy]-4-phenoxyphenyl}-1,3,5-triazinane-2,4,6-trione], the “% of parent compound metabolized” value in series [1] worked out at 99.8%. The EC50 amounted to 280 nM at TrkA and 320 nM on TrkB.
Take `Cc1cccc(-n2c(=O)[nH]c(=O)n(-c3ccc(Oc4ccccc4)c(OCC(=O)N4CCOCC4)c3)c2=O)c1` [Example 11, 1-(3-methylphenyl)-3-{3-[2-(morpholin-4-yl)-2-oxoethoxy]-4-phenoxyphenyl}-1,3,5-triazinane-2,4,6-trione]: the “% of parent compound metabolized” value in series [1] stood at 57.3%. The EC50 at TrkA worked out at 270 nM; on TrkB, 180 nM.
With `Cc1cccc(-n2c(=O)[nH]c(=O)n(-c3ccc(Oc4ccccc4)c(OCC(=O)N4CCC4)c3)c2=O)c1` [Example 12, 1-{3-[2-(azetidin-1-yl)-2-oxoethoxy]-4-phenoxyphenyl}-3-(3-methylphenyl)-1,3,5-triazinane-2,4,6-trione], the values for the EC50 on TrkA and on TrkB were 410 nM and 220 nM, respectively.
In the case of `CSc1cc(-n2c(=O)[nH]c(=O)n(-c3ccccc3)c2=O)ccc1Oc1ccccc1` [Example 13, 1-[3-(methylsulfanyl)-4-phenoxyphenyl]-3-phenyl-1,3,5-triazinane-2,4,6-trione], the “% of parent compound metabolized” value in series [1] came out at 4.7%. The EC50 stood at 640 nM on TrkA and 380 nM at TrkB.
For `CSc1cc(-n2c(=O)[nH]c(=O)n(-c3cccc(C)c3)c2=O)ccc1Oc1ccccc1` [Example 14, 1-(3-methylphenyl)-3-[3-(methylsulfanyl)-4-phenoxyphenyl]-1,3,5-triazinane-2,4,6-trione], in series [1], the “% of parent compound metabolized” value was 53.4%. For the same compound, the EC50 is 650 nM at TrkA and 300 nM on TrkB.
As for `Cc1cccc(-n2c(=O)[nH]c(=O)n(-c3ccc(Oc4ccccc4)c(CN4CCCC4=O)c3)c2=O)c1` [Example 15, 1-(3-methylphenyl)-3-{3-[(2-oxopyrrolidin-1-yl)methyl]-4-phenoxyphenyl}-1,3,5-triazinane-2,4,6-trione], in series [1], the “% of parent compound metabolized” value turned out to be 29.6%. The EC50 at TrkA turned out to be 40 nM; at TrkB, 110 nM.
Regarding `Cc1cc(-n2c(=O)[nH]c(=O)n(C)c2=O)ccc1Oc1ccc(S(=O)(=O)C(F)(F)F)cc1` [ponazuril, 1-methyl-3-[3-methyl-4-(4-trifluoromethanesulfonylphenoxy)phenyl]-1,3,5-triazinane-2,4,6-trione, reference compound], the “% of parent compound metabolized” value in series [1] was 3.1%.
